According to PubChem BioAssay (NCI):
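Compound exposure: 48 hours, 5 concentrations, 96-well plates. The concentration for full growth arrest is given as TGI.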

Experiments:
Test in all cases: growth of human tumour cells (NCI), 48 h
M14 melanoma = test system: M14 melanoma
NCI-H23 lung = test system: NCI-H23 lung
SW-620 colon = test system: SW-620 colon
ACHN renal = test system: ACHN renal
COLO 205 colon = test system: COLO 205 colon
MOLT-4 leukemia = test system: MOLT-4 leukemia
NCI-H522 lung = test system: NCI-H522 lung
BT-549 breast = test system: BT-549 breast
OVCAR-4 ovarian = test system: OVCAR-4 ovarian
SR leukemia = test system: SR leukemia
HCT-15 colon = test system: HCT-15 colon
786-0 renal = test system: 786-0 renal
CCRF-CEM leukemia = test system: CCRF-CEM leukemia
MDA-MB-231 breast = test system: MDA-MB-231 breast
HOP-92 NSCLC = test system: HOP-92 NSCLC
HS 578T breast = test system: HS 578T breast
IGROV1 ovarian = test system: IGROV1 ovarian
SN12C renal = test system: SN12C renal
MALME-3M melanoma = test system: MALME-3M melanoma
MDA-N = test system: MDA-N
EKVX NSCLC = test system: EKVX NSCLC
OVCAR-5 ovarian = test system: OVCAR-5 ovarian
HCT-116 colon = test system: HCT-116 colon
SF-268 CNS = test system: SF-268 CNS
TK-10 renal = test system: TK-10 renal
SK-MEL-5 melanoma = test system: SK-MEL-5 melanoma
SNB-19 CNS = test system: SNB-19 CNS
HT29 colon = test system: HT29 colon
SK-OV-3 ovarian = test system: SK-OV-3 ovarian
SK-MEL-2 melanoma = test system: SK-MEL-2 melanoma
MDA-MB-435 = test system: MDA-MB-435
UO-31 renal = test system: UO-31 renal
NCI-H226 lung = test system: NCI-H226 lung
UACC-62 melanoma = test system: UACC-62 melanoma
A549 NSCLC = test system: A549 NSCLC
OVCAR-8 ovarian = test system: OVCAR-8 ovarian
SK-MEL-28 melanoma = test system: SK-MEL-28 melanoma
NCI/ADR-RES ovarian = test system: NCI/ADR-RES ovarian
RXF 393 renal = test system: RXF 393 renal
SF-295 CNS = test system: SF-295 CNS
U251 CNS = test system: U251 CNS
KM12 colon = test system: KM12 colon
UACC-257 melanoma = test system: UACC-257 melanoma
K-562 leukemia = test system: K-562 leukemia
HOP-62 NSCLC = test system: HOP-62 NSCLC
OVCAR-3 ovarian = test system: OVCAR-3 ovarian
PC-3 prostate = test system: PC-3 prostate
A498 renal = test system: A498 renal
LOX IMVI melanoma = test system: LOX IMVI melanoma
RPMI-8226 leukemia = test system: RPMI-8226 leukemia
CAKI-1 renal = test system: CAKI-1 renal
SNB-75 CNS = test system: SNB-75 CNS
DU-145 prostate = test system: DU-145 prostate
T-47D breast = test system: T-47D breast

Measured: TGI

O=[N+]([O-])c1ccc(N=Nc2c(O)ccc3cc(S(=O)(=O)O)cc(S(=O)(=O)O)c23)cc1
> 100 µM: all assays above
